Reference: US20250041313A1, “COMBINATION THERAPY FOR TREATMENT OF CANCER” (CITY OF HOPE, priority 2023, published 2025)

Tests used:
DMS114 cells = experiment: CCK-8 cytotoxicity assay, 72 h; format: cell-based; conditions: Homo sapiens, DMS-114
From the text: (§1) We have determined cell cytotoxicity toward a specific drug, employing Cell Counting Kit-8 (Dojindo Molecular Technologies, Rockville, MD) as previously described (15).
(§2) The expression levels of DRP1 and DHODH in SCLC lines were compared with non-malignant BEAS 2B cells. Elevated levels of DRP1 and pDRP1 at Ser^616 were detected in all tested SCLC cells. Higher expression of DHODH was also observed in all seven SCLC cell lines (FIG. 1C). Previous studies have shown that Leflu and its active metabolite Teri regulate mitochondrial morphology (9,10,26). To find the effects of these two drugs on DRP1, AA docking (27) method was used to search for the best binding pocket for inhibitor binding. […] Leflu has a medium docking score of −5.6 kcal/mol. […] In vitro cytotoxicity effect of Teri and Leflu was tested in a panel of SCLC cell lines. Ten SCLC cell lines were treated with increasing concentrations of each drug for 72 h. […] In contrast, IC50 doses were much higher for Leflu. Upon oral administration of Leflu, over 80% of the drug is converted to Teri (28), indicating a potential reason for higher sensitivity to Teri. Two cell lines, SBC3 and SBC5, with IC50 2 μM and 30 μM, respectively, for Teri were used for additional experiments. […] The inhibitory effect was higher with Teri in both cell lines (FIG. 2A).

DMS273 cells = experiment: CCK-8 cytotoxicity assay, 72 h; format: cell-based; conditions: Homo sapiens, DMS-273
From the text: as §1, §2

H146 cells = experiment: CCK-8 cytotoxicity assay, 72 h; format: cell-based; conditions: Homo sapiens, NCI-H146
From the text: as §1, §2

H345 cells = experiment: CCK-8 cytotoxicity assay, 72 h; format: cell-based; conditions: Homo sapiens, NCI-H345
From the text: as §1, §2

H524 cells = experiment: CCK-8 cytotoxicity assay, 72 h; format: cell-based; conditions: Homo sapiens, NCI-H524
From the text: as §1, §2

H526 cells = experiment: CCK-8 cytotoxicity assay, 72 h; format: cell-based; conditions: Homo sapiens, NCI-H526
From the text: as §1, §2

H69 cells = experiment: CCK-8 cytotoxicity assay, 72 h; format: cell-based; conditions: Homo sapiens, NCI-H69
From the text: as §1, §2

H82 cells = experiment: CCK-8 cytotoxicity assay, 72 h; format: cell-based; conditions: Homo sapiens, NCI-H82
From the text: as §1, §2

SBC5 cells = experiment: Imaris quantification of mitochondrial and nuclear areas/morphology; format: cell-based, human; conditions: for effect on mitochondrial areas: SBC5
Description: Imaris 9.9.0 (Bitplane, AG), with Surfaces and Cells modules, was used to generate mitochondria morphology data from 2D images and 2D Z-stack subsets. Surfaces were used to evaluate individual mitochondria from cell monolayers and spheroids. Detection parameters were optimized for visible mitochondria and nuclei in each group with varying signal intensities. Roundness ratios were calculated from Surface generated Bounding Box 00 Length measurements. Object lengths less than 0.1 μm were excluded, and lengths greater than 1.26 μm were separately analyzed as clusters. Thresholds were uniformly applied to roundness ratios to categorize mitochondria morphology as elongated (<0.599), intermediate (≥0.600-0.649), or round/fragmentated (≥0.650). The percentage of cells from total number is based on a ratio. A perfectly round object has a ratio of 1.0. The Cells module was used to detect and quantify mitochondria and nucleus area from cell monolayers. Identical parameters were applied to all groups with cell boundary detection based on mitochondria signals. Imaris includes nuclei in cytoplasm measurements, so mitochondrial area is calculated by subtracting nucleus area from cell cytoplasm area. Abnormal nuclei were excluded (<100 μm^2, >750 μm^2).
Next, we performed the same analysis with SBC5 cells. […] Mitochondrial elongation in SBC3 cells treated with Teri and Leflu is visible and correlates with Imaris Surface results. […] Although mitochondrial areas of SBC5 cells were not affected by Teri and Leflu treatments, elongations of individual mitochondria were detected with each treatment (FIG. 2I). […] Therefore, it is important to investigate the effects of Teri and Leflu on mitochondrial morphology and cell survival in combination with chemotherapeutic drugs.

H446 spheroids [1] = experiment: Spheroid MitoSOX assay (mitochondrial superoxide); format: cell-based, human; conditions: increase after 40 h
Description: The IncuCyte system recorded two days MitoSOX red dye (Thermo Fisher Scientific, Waltham, MA) penetration in live H446 spheroids. Spheroids were labeled with 5 μM of dye and red fluorescence was assessed by IncuCyte software. Fluorescence and brightfield images were acquired on an Axio Observer 7 (Carl Zeiss, Jena, Germany) inverted microscope, equipped with a 10×/0.45 NA Plan-Apochromat objective, TL halogen lamp, Colibri 7, filter set 90 HE, and captured on a Zeiss Axiocam 702 CMOS camera. Exposure times and wavelengths were 15 ms (red fluorescence), 9.4 ms (brightfield), BP 555/30 excitation filter, and QBP 592/25 emission filter.

H446 spheroids [2] = experiment: Spheroid ATP assay (Cell titer glo); format: cell-based, human; conditions: 72 h, Teri 1600 nM, Lur 1600 pM, Teri/Lur 1600 nM/pM
Description: Cell titer glo/ATP assay (Promega, Madison, WI) was used for ATP measurement in spheroids. After 72 h of drug treatments, intracellular spheroid's ATP concentration was measured by luminescence following the manufacturer protocol using Tecan Spark 10 plate reader.

SBC5 SCLC cell line = experiment: Immunoblotting of DRP1 phosphorylation; format: cell-based, human; conditions: SBC5 as printed
Description: SCLC total cell lysates were prepared using RIPA (radioimmunoprecipitation assay lysis buffer) lysis buffer. Protein concentration was determined using DC Protein Assay Kit Bio-Rad (Hercules, CA). Samples were then run on SDS-PAGE in 4-15% polyacrylamide gels and transferred onto Immobilon membranes (Millipore, MO), blocked, incubated with specific primary antibodies at 4° C. overnight, and subsequently developed with secondary antibodies. The following primary antibody were used: pan-Actin, Phospho-DRP1 (Ser^616), Phospho-DRP1 (Ser^637), Histone H2B (V^119), Phospho-Histone H2A.X (Ser^139), Phospho-P53 (Ser^15), P-53, Cleaved PARP (Asp^214) (D64E10), Phospho-Chk1 (Ser^345) (133D3) and p21 were from Cell Signaling Technology (City of Industry, CA), β-Actin (Sigma-Aldrich, St. Luis, MO), Phospho RNA Polymerase II (S2) antibody (Bethyl Lab, Montgomery, TX), RNA Polymerase II CTD4H8 (BioLegend, San Diego, CA), DHODH (E-8), DRP1 (C-5), GAPDH (0411), c-Myc (9E10), Tom20 (F-10), FisI (B-5), OPA1 (D-9), antibodies from Santa Cruz Biotechnology (Dallas, TX) and MFN2 (Abcam, Boston, MA) and Chk1, MDM2, Cyclin CDK4 and D1, and E2F1 (Proteintech, Rosemont, IL).
Although mitochondrial areas of SBC5 cells were not affected with treatment, elongations of individual mitochondria were detected with each treatment.

SMILES | IC50 (DMS114 cells) [µM] | IC50 (DMS273 cells) [µM] | IC50 (H146 cells) [µM] | IC50 (H345 cells) [µM] | IC50 (H524 cells) [µM] | IC50 (H526 cells) [µM] | IC50 (H69 cells) [µM] | IC50 (H82 cells) [µM] | effect on mitochondrial areas (SBC5 cells) | Nuclear area (SBC5 cells; SBC5, 20 μM) [μm^2] | mitochondrial superoxide levels (MitoSOX) (H446 spheroids [1]) | ATP level compared with the control (H446 spheroids [2]) | DRP1 expression level (SBC5 SCLC cell line) | DRP1 phosphorylation at Ser616, and Ser637 (SBC5 SCLC cell line) | Nuclear area (SBC5 cells; SBC5, 10 μM) [μm^2]
Cc1oncc1C(=O)Nc1ccc(C(F)(F)F)cc1 [Leflunomide, leflunomide] | > 152 | > 152 | 152 | > 152 | 133 | 48.3 | > 152 | 103 | not affected | 386.8±7.23 | – | – | – | – | –
COc1ccc2[nH]c3c(c2c1)CCN[C@]31CS[C@@H]2c3c(OC(C)=O)c(C)c4c(c3[C@H](COC1=O)N1[C@@H]2[C@H]2c3c(cc(C)c(OC)c3O)C[C@@H]([C@@H]1O)N2C)OCO4 [Lurbinectedin, lurbinectedin] | – | – | – | – | – | – | – | – | – | – | unaffected | ~60% | – | – | –
C/C(O)=C(\C#N)C(=O)Nc1ccc(C(F)(F)F)cc1 [Teriflunomide, teriflunomide] | 12.6 | 43.7 | 8.6 | > 43.7 | 10.8 | 7.6 | 17.1 | 7.2 | not affected | 369.8±5.94 | unaffected | approximately 80% | unaffected | significantly inhibits | 369.5±6.15
